Assay results from PMC8329197, “Compounds targeting OSBPL7 increase ABCA1-dependent cholesterol efflux preserving kidney function in two models of kidney disease” (Nature Communications, 2021).
Several values for one entry are separate records, joined by “and”; a condition that tells them apart may be missing. Identical values can stand only once.

Assays:
[1] = tested on: Adriamycin (ADR)-induced nephropathy in Balb/c mice; experiment: ADR nephropathy: kidney cortex lipids (cholesterol ester, total cholesterol, triglycerides, Oil-red O); type: in vivo, mouse; conditions: ADR model; individual animals
Procedure: OCT embedded kidney cortex samples were cryosectioned at 4 μm thickness and stained with Oil-Red O-isopropanol solution (Electron Microscopy Science, PA) diluted 6:4 in water, and then counterstained with Hematoxylin Harris Hg Free (VWR, PA). Sections were then evaluated using a light microscope (Olympus BX 41, Tokyo, Japan).
Snap frozen kidney cortex samples were homogenized in 2 mM potassium phosphate buffer, pH 7, (10 µl buffer/mg tissue) using a glass douncer on ice. 100 μl of the homogenate were mixed thoroughly with 1 ml of hexane:isopropanol (3:2;v:v) per volume of tissue homogenate. The aqueous (pellet) and organic (supernatant) phases were separated by centrifugation at 12,000 × g for 5 min. Pellets (aqueous phase) were dried, reconstituted in 8 M urea, 0.1% SDS, 0.1 M NaOH, and total proteins were quantified by the BCA method (Thermofisher). The organic phase was dried by exposure to nitrogen. Lipids were then reconstituted in 100 µl isopropanol:NP-40 (9:1;v:v). Triglyceride content was assayed using a colorimetric kit according to the manufacturer’s instructions (Cayman Chemical USA). Total cholesterol and CE content were assayed using an enzymatic fluorometric method. For total cholesterol measurement, extracts were diluted 1:100 in assay buffer (100 mM potassium phosphate, 50 mM NaCl, 5 mM cholic acid, 0.1% Triton […], pH 7.4) containing cholesterol oxidase (1 U/ml), cholesterol esterase (1 U/ml), horseradish peroxidase (1 U/ml), and Amplex Red (75 µM). The reactions were incubated at 37 °C for 30 min in a black opaque 96-well plate (Greiner) and fluorescence was measured in a microplate reader (Spectramax i3X, Molecular Devices) at 530 nm excitation and 580 emission.
For CE determination, 150 µl of the assay buffer described above, supplemented with bovine liver catalase (45 U/ml) and cholesterol oxidase (1 U/ml), was added to 25 μl of sample and incubated overnight at 37 °C to deplete free cholesterol leaving only cholesterol esters. Then, 75 µl of cholesterol ester detection reagent (1 U/ml cholesterol oxidase, 4 U/ml cholesterol esterase, 24 U/ml horseradish peroxidase, 300 µM Amplex Red) was added. The reaction was incubated at 37 °C for 30 min and the fluorescence signal was measured as described above. Internal standards included samples containing 1 mM of cholesterol and 5 μM of cholesterol oleate in order to verify the completeness of the enzymatic decomposition of free cholesterol as well as assay sensitivity and specificity.

[2] = tested on: Adriamycin (ADR)-induced nephropathy in Balb/c mice; experiment: ADR nephropathy: blood urea nitrogen (BUN) and serum creatinine; type: in vivo, mouse; conditions: 28 days treatment
Excerpt: Supplement 41467_2021_24890_MOESM5_ESM.xlsx, sheet "Supplementary Table 4" | column: ADR+ Cpd A; ADR+ Cpd G; ADR+ Cpd C

[3] = tested on: Adriamycin (ADR)-induced nephropathy in Balb/c mice; experiment: Adriamycin-induced nephropathy, dose-finding pilot study: ACR and body weight time course; conditions: for ACR in pilot study: days 7-28; for Body Weight / ACR in spot urine: ADR, individual mice
[4] = tested on: Adriamycin (ADR)-induced nephropathy in Balb/c mice; experiment: ADR nephropathy: serum cholesterol and triglycerides; type: in vivo, mouse
[5] = 30 mg/Kg/day, 7 days after inj, 30 mg/kg/day
[6] = 30 mg/Kg/day, 14 days after inj, 30 mg/kg/day
[7] = 100 mg/Kg/day, 7 days after inj, 100 mg/kg/day
[8] = 100 mg/Kg/day, 14 days after inj, 100 mg/kg/day
[9] = 100 mg/Kg/day, 21 days after inj, 100 mg/kg/day
[10] = 100 mg/Kg/day, 28 days after inj, 100 mg/kg/day
[11] = ADR-injected mice, 28-day treatment, 25th quartile
[12] = ADR-injected mice, 28-day treatment, 75th quartile
[13] = ADR-injected mice, 28-day treatment, group maximum
[14] = ADR-injected mice, 28-day treatment, group median
[15] = ADR-injected mice, 28-day treatment, group minimum
[16] = ADR-injected mice, 28-day treatment, individual mouse values

Question: `O=C(N[C@@H]1CCCC[C@H]1O)c1ccc(OCC(F)(F)F)c(-c2ccc(Cl)c(Cl)c2)n1` [Cpd A] was tested. Which “KIDNEY CORTEX TOTAL CHOLESTEROL” value [1] did it give?
Answer: Its value is 116.65 nmol Chol./mg protein and 64.31 nmol Chol./mg protein and 91.93 nmol Chol./mg protein and 226.3 nmol Chol./mg protein and 280.19 nmol Chol./mg protein and 194.83 nmol Chol./mg protein and 293.03 nmol Chol./mg protein and 87.04 nmol Chol./mg protein and 85.55 nmol Chol./mg protein and 75 nmol Chol./mg protein and 105.96 nmol Chol./mg protein.

Question: What about the “KIDNEY CORTEX TRIGLYCERIDES” value [1] of the same compound?
Answer: The value was 65.49 nmol Triglyceride /mg protein and 206.46 nmol Triglyceride /mg protein and 31.6 nmol Triglyceride /mg protein and 59.01 nmol Triglyceride /mg protein and 14.83 nmol Triglyceride /mg protein and 65.84 nmol Triglyceride /mg protein and 43.06 nmol Triglyceride /mg protein and 145.74 nmol Triglyceride /mg protein and 110.74 nmol Triglyceride /mg protein.

Question: And the “BUN, QR(25)” value ([2]; 25th quartile)?
Answer: The value was 16 mg/dL.

Question: And the “sCre, QR(25)” value ([2]; 25th quartile)?
Answer: The value was 0.11 mg/dL.

Question: And the “BUN, QR(75)” value ([2]; 75th quartile)?
Answer: The value was 17.75 mg/dL.

Question: What about the “sCre, QR(75)” value ([2]; 75th quartile) of the same compound?
Answer: The value was 0.135 mg/dL.

Question: And the “BUN, Max” value ([2]; group maximum)?
Answer: Its value is 23 mg/dL.

Question: And the “sCre, Max” value ([2]; group maximum)?
Answer: Its value is 0.17 mg/dL.

Question: And the “BUN, Median” value ([2]; group median)?
Answer: Its value is 17 mg/dL.

Question: What about the “sCre, Median” value ([2]; group median) of the same compound?
Answer: Its value is 0.115 mg/dL.

Question: And the “BUN, Min” value ([2]; group minimum)?
Answer: Its value is 13 mg/dL.

Question: What about the “sCre, Min” value ([2]; group minimum) of the same compound?
Answer: Its value is 0.08 mg/dL.

Question: And the “Blood Urea nitrogen (BUN)” value ([2]; individual mouse values)?
Answer: Its value is 17 mg/dL and 23 mg/dL and 18 mg/dL and 19 mg/dL and 16 mg/dL and 15 mg/dL and 13 mg/dL.

Question: And the “Serum Creatinine sCre” value ([2]; individual mouse values)?
Answer: Its value is 0.12 mg/dL and 0.08 mg/dL and 0.17 mg/dL and 0.1 mg/dL and 0.15 mg/dL and 0.11 mg/dL and 0.14 mg/dL.

Question: And the “ACR in pilot study” value ([3]; 30 mg/kg/day oral)?
Answer: The value was “significantly improved”.

Question: What about the “ACR in pilot study” value ([3]; 100 mg/kg/day oral) of the same compound?
Answer: Its value is “significantly improved”.

Question: And the “Body Weight” value ([3]; 30 mg/Kg/day, 0 days after inj, 30 mg/kg/day)?
Answer: The value was 19 grams (3×) and 18 grams and 20 grams.

Question: What about the “ACR in spot urine” value [3, 5] of the same compound?
Answer: Its value is 0.046 mg Albumin/ mg Creatinine in urine and 0.018 mg Albumin/ mg Creatinine in urine and 0.038 mg Albumin/ mg Creatinine in urine and 0.025 mg Albumin/ mg Creatinine in urine and 0.07 mg Albumin/ mg Creatinine in urine.

Question: And the “Body Weight” value [3, 5]?
Answer: The value was 18 grams and 17 grams (3×) and 19 grams.

Question: What about the “ACR in spot urine” value [3, 6] of the same compound?
Answer: Its value is 18.583 mg Albumin/ mg Creatinine in urine and 0.363 mg Albumin/ mg Creatinine in urine and 64.328 mg Albumin/ mg Creatinine in urine and 0.368 mg Albumin/ mg Creatinine in urine and 1.926 mg Albumin/ mg Creatinine in urine.

Question: And the “Body Weight” value [3, 6]?
Answer: The value was 18 grams (3×) and 17 grams (2×).

Question: And the “Body Weight” value ([3]; 30 mg/Kg/day, 21 days after inj)?
Answer: Its value is 18 grams.

Question: What about the “ACR in spot urine” value ([3]; 30 mg/Kg/day, 21 days after inj, 30 mg/kg/day) of the same compound?
Answer: Its value is 1.551 mg Albumin/ mg Creatinine in urine and 71.309 mg Albumin/ mg Creatinine in urine and 0.609 mg Albumin/ mg Creatinine in urine and 0.814 mg Albumin/ mg Creatinine in urine.

Question: And the “Body Weight” value ([3]; 30 mg/Kg/day, 28 days after inj)?
Answer: The value was 19 grams.

Question: What about the “ACR in spot urine” value ([3]; 30 mg/Kg/day, 28 days after inj, 30 mg/kg/day) of the same compound?
Answer: Its value is 2.363 mg Albumin/ mg Creatinine in urine and 0.33 mg Albumin/ mg Creatinine in urine and 3.08 mg Albumin/ mg Creatinine in urine and 0.093 mg Albumin/ mg Creatinine in urine and 0.242 mg Albumin/ mg Creatinine in urine.

Question: And the “Body Weight” value ([3]; 100 mg/Kg/day, 0 days after inj, 100 mg/kg/day)?
Answer: Its value is 20 grams (2×) and 18 grams and 19 grams (2×).

Question: What about the “ACR in spot urine” value [3, 7] of the same compound?
Answer: The value was 0.022 mg Albumin/ mg Creatinine in urine and 0.015 mg Albumin/ mg Creatinine in urine and 0.072 mg Albumin/ mg Creatinine in urine and 0.065 mg Albumin/ mg Creatinine in urine.

Question: And the “Body Weight” value [3, 7]?
Answer: The value was 18 grams and 17 grams (4×).

Question: What about the “ACR in spot urine” value [3, 8] of the same compound?
Answer: Its value is 5.851 mg Albumin/ mg Creatinine in urine and 174.428 mg Albumin/ mg Creatinine in urine and 9.218 mg Albumin/ mg Creatinine in urine and 96.72 mg Albumin/ mg Creatinine in urine.

Question: And the “Body Weight” value [3, 8]?
Answer: Its value is 17 grams (3×) and 18 grams and 19 grams.

Question: What about the “ACR in spot urine” value [3, 9] of the same compound?
Answer: The value was 3.536 mg Albumin/ mg Creatinine in urine and 136.245 mg Albumin/ mg Creatinine in urine and 73.737 mg Albumin/ mg Creatinine in urine and 208.282 mg Albumin/ mg Creatinine in urine.

Question: What about the “Body Weight” value [3, 9] of the same compound?
Answer: The value was 15 grams and 18 grams (3×).

Question: And the “ACR in spot urine” value [3, 10]?
Answer: Its value is 0.638 mg Albumin/ mg Creatinine in urine and 26.929 mg Albumin/ mg Creatinine in urine and 1.99 mg Albumin/ mg Creatinine in urine and 18.858 mg Albumin/ mg Creatinine in urine.

Question: What about the “Body Weight” value [3, 10] of the same compound?
Answer: The value was 15 grams and 19 grams and 18 grams and 14 grams.

Question: And the “SERUM CHOLESTEROL” value ([4]; ADR model, individual animals)?
Answer: The value was 96 and 91 and 87 and 95 and 159 and 122 and 71 and 90 and 81 and 77.

Question: What about the “SERUM TRIGLYCERIDES” value ([4]; ADR model, individual animals) of the same compound?
Answer: The value was 108 and 116 and 127 and 60 and 44 and 80 and 53 and 54.

Question: What about the “Serum cholesterol, QR(25)” value [4, 11] of the same compound?
Answer: The value was 87 mg/dL.

Question: And the “Serum triglycerides, QR(25)” value [4, 11]?
Answer: The value was 55.5 mg/dL.

Question: What about the “Serum cholesterol, QR(75)” value [4, 12] of the same compound?
Answer: Its value is 96 mg/dL.

Question: What about the “Serum triglycerides, QR(75)” value [4, 12] of the same compound?
Answer: The value was 116 mg/dL.

Question: What about the “Serum cholesterol, Max” value [4, 13] of the same compound?
Answer: The value was 159 mg/dL.

Question: What about the “Serum triglycerides, Max” value [4, 13] of the same compound?
Answer: Its value is 127 mg/dL.

Question: What about the “Serum cholesterol, Median” value [4, 14] of the same compound?
Answer: Its value is 91 mg/dL.

Question: What about the “Serum triglycerides, median” value [4, 14] of the same compound?
Answer: The value was 94 mg/dL.

Question: And the “Serum cholesterol, Min” value [4, 15]?
Answer: The value was 71 mg/dL.

Question: What about the “Serum triglycerides, Min” value [4, 15] of the same compound?
Answer: The value was 44 mg/dL.

Question: What about the SERUM CHOLESTEROL [4, 16] of the same compound?
Answer: Its SERUM CHOLESTEROL is 91 mg/dL and 87 mg/dL and 95 mg/dL and 159 mg/dL and 122 mg/dL and 71 mg/dL and 90 mg/dL and 77 mg/dL and 96 mg/dL.

Question: What about the SERUM TRIGLYCERIDES [4, 16] of the same compound?
Answer: Its SERUM TRIGLYCERIDES is 44 mg/dL and 80 mg/dL and 53 mg/dL and 54 mg/dL and 108 mg/dL and 116 mg/dL and 127 mg/dL and 60 mg/dL.

Question: What about the “Animals with sporadically high cholesterol levels (>122 mg/dL)” value ([4]; plasma, 28 days of treatment, ADR-challenged) of the same compound?
Answer: Its value is 10%.

Question: What about the “Cholesterol (mg/dL), Median(IQR)” value ([4]; serum, after ADR challenge) of the same compound?
Answer: The value was 91(80-159) mg/dL.

Question: What about the “Cholesterol (mg/dL), Range” value ([4]; serum, after ADR challenge) of the same compound?
Answer: The value was 71 to 159 mg/dL.

Question: What about the “Cholesterol, % of the group> 112 mg/dL” value ([4]; serum, after ADR challenge) of the same compound?
Answer: Its value is 10%.

Question: What about the “Triglycerides (mg/dL), Median(IQR)” value ([4]; serum, after ADR challenge) of the same compound?
Answer: The value was 94(54-116) mg/dL.

Question: What about the “Triglycerides (mg/dL), Range” value ([4]; serum, after ADR challenge) of the same compound?
Answer: Its value is 44 to 127 mg/dL.
